Here are results for two compounds from PMC6813460, “Enhancing PLP-Binding Capacity of Class-III ω-Transaminase by Single Residue Substitution” (Frontiers in Bioengineering and Biotechnology, 2019).

The Kd is a measure of binding affinity in units of concentration. The term stoichiometry N denotes the number of molecules, sites or subunits per partner or assembly.

Assay [1] has as its target PfTA (Pseudomonas fluorescens). Briefly: differential scanning fluorimetry (SYPRO Orange), T1/[…] vs PLP, 1-site fit. It is filed as binding. The settings on record: apo form, 1 mg/mL protein, PLP 1–250 μM, 50 mM phosphate pH 8; cofactor forms internal aldimine (covalent).
Assay [2] deals with T1, CvTA (Chromobacterium violaceum, UniProt Q7NWG4).
T1 construct: gene CV_2025; IMAC-purified recombinant from E. coli BL21 (DE3) Star; dimer
T1 sequence (Q7NWG4 1-459): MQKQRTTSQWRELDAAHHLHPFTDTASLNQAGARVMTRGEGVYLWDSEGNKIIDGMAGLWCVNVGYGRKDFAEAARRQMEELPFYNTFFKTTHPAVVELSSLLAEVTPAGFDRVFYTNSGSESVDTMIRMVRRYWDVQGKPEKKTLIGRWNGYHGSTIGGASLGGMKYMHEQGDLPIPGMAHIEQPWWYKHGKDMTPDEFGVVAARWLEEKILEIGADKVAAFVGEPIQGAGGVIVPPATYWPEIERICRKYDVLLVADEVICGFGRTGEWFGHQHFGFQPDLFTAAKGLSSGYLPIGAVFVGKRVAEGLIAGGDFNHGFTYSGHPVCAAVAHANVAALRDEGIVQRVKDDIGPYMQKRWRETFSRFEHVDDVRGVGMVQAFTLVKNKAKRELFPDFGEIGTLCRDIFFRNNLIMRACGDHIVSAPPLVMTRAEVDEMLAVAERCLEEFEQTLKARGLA
The description is as above. It is filed as binding.

For assay [3], the target named is T2, HeTA (Halomonas elongata, UniProt E1V913).
T2 construct: gene spuC; IMAC-purified recombinant from E. coli BL21 (DE3) Star; dimer
T2 sequence (E1V913 1-461): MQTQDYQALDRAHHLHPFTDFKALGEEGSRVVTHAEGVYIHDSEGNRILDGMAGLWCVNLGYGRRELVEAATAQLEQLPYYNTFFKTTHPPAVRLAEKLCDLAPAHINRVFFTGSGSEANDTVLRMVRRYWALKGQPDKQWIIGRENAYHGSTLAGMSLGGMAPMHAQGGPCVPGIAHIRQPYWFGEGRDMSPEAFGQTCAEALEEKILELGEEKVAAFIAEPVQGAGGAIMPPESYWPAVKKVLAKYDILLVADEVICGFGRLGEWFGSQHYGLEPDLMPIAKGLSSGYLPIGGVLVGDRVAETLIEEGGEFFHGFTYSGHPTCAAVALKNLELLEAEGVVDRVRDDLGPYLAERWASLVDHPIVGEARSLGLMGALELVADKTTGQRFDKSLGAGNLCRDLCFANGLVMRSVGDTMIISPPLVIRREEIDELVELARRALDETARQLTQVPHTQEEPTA
The description is as above. Format: binding.

Assay [4] addresses T3, HeTA (Halomonas elongata, UniProt E1V913, N120V).
T3 construct: gene spuC; IMAC-purified recombinant from E. coli BL21 (DE3) Star; dimer
The description is as above. Format: binding.

Assay [5] concerns the target T4, CvTA (Chromobacterium violaceum, UniProt Q7NWG4, V124N).
T4 construct: gene CV_2025
The experiment in a line: biochemical.

In assay [6] the target is Pseudomonas fluorescens ω-transaminase (Pseudomonas fluorescens). Briefly: crystal structure; PfTA crystallised with PLP; sitting drop vapor diffusion at 20°C; 6 mg/mL protein in 50 mM HEPES pH 7.5, 300 mM NaCl, 0.1 mM PLP, 1% glycerol, 20 mM DTT mixed 1:1 with 0.1 M sodium citrate pH 5.6, 12% w/v PEG 6000, 0.1 M lithium sulfate; 2.2 Å; interfaces analysed with the PISA server.

T3 sequence (E1V913 entry or part of it N120V): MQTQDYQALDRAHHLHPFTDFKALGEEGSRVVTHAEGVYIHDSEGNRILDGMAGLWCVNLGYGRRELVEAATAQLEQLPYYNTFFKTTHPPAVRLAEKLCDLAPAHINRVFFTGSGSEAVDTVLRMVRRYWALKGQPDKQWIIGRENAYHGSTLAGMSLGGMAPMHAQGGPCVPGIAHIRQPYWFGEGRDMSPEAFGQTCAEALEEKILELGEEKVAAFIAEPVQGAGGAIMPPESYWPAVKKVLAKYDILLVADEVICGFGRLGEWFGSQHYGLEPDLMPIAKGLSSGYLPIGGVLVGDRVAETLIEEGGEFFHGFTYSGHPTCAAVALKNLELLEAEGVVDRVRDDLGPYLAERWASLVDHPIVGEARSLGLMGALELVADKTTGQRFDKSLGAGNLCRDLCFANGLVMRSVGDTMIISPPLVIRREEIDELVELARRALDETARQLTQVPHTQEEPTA

Consider `Cc1ncc(COP(=O)(O)O)c(C=O)c1O` [PLP], for which the Kd turned out to be 14.8 ± 2.5 µM in assay [1]; 59 ± 15.8 µM on CvTA [2]; 12.4 ± 3.6 µM on HeTA [3]; 30.3 ± 4.1 µM at HeTA [4]; 16.4 ± 5.6 µM at CvTA [5].
For the compound “Pseudomonas fluorescens ω-transaminase (enzyme)”, in assay [6], the stoichiometry N is 4.
